# Results as given in patent publication US20250115558A1, “PYRIDAZINE DERIVATIVES AND RELATED USES” (NodThera Limited, priority 2023, published 2025).
# Structures can show the parent of a compound that is named as a salt.
# Experiments:
# THP-1 = THP-1 IC50 assay; assay type: cell-based; details: Homo sapiens; THP-1 cells
# [1] = system: IL-1β release upon NLRP3 activation in peripheral blood mononuclear cells (PBMC); assay: PBMC IC50 Determination Assay; assay type: cell-based; details: Homo sapiens; inhibition of IL-1β release; LPS-primed PBMC stimulated with ATP or nigericin
# Experimental: The compounds of the present disclosure were tested for their inhibitory activity against IL-1β release upon NLRP3 activation in peripheral blood mononuclear cells (PBMC).
# Protocol A. PBMC were isolated from buffy coats by density gradient centrifugation on Histopaque-1077 (Sigma, cat no. 10771). Isolated cells were seeded into the wells of a 96-well plate and incubated for 3 h with lipopolysaccharide (LPS). Following medium exchange, the compounds of the present disclosure were added (a single compound per well) and the cells were incubated for 30 min. Next, the cells were stimulated either with ATP (5 mM) or nigericin (10 μM) for 1 h and the cell culture media from the wells were collected for further analysis.
# The release of IL-1β into the media was determined by a quantitative detection of IL-1β in the media using an IL-1β enzyme-linked immunosorbent assay (ELISA) Ready-SET-Go!, eBioscience cat. No. 88-7261-88. Briefly, in a first step, high affinity binding plates (Corning, Costar 9018 or NUNC Maxisorp Cat No. 44-2404) were coated overnight at 4° C. with specific capture antibody included in the kit (anti-human IL-1β ref. 14-7018-68). Subsequently, plates were blocked with blocking buffer for 1 h at room temperature (rt) and after washing with a buffer (PBS with 0.05% Tween-20) incubated with protein standard and culture media. After 2 h of incubation at rt, plates were washed and incubated with biotinylated detection antibody included in the kit (anti-human IL-1β Biotin ref. 33-7110-68) for 1 h at rt. Plates were washed and incubated with HRP-streptavidin for 30 min at rt and washed again. The signal was developed after addition of 3,3′,5,5′-tetramethylbenzidine-peroxidase (TMB) until colour appeared and the reaction was stopped by 2 M H2SO4. A microplate spectrophotometer (BioTek) was used to detect signals with 450 nm. The detection range of IL-1β ELISA was […].
# Protocol B. PBMC were isolated from buffy coats by density gradient centrifugation on Histopaque-1077 (Sigma, cat no. 10771). Isolated cells were seeded into the wells (280,000 cells/well) of a 96-well plate and incubated for 3 h with lipopolysaccharide (LPS, 1 μg/mL diluted 1000× from a 1 mg/mL stock solution). The compounds of the present disclosure were added (a single compound per well) and the cells were incubated for 30 min. Next, the cells were stimulated with ATP (5 mM final concentration diluted 20× from a 100 mM stock solution) for 1 h and the cell culture media from the wells were collected for further analysis.
# The release of IL-1β into the media was determined by quantitative detection of IL-1β in the media using HTRF®, CisBio cat. No. 62HIL1BPEH. Briefly, cell culture supernatant were dispensed directly into the assay plate containing antibodies labelled with the HTRF® donor and acceptor. A microplate spectrophotometer (BMG) was used to detect signals at 655 nm and 620 nm. The detection range of IL-1β HTRF® was 39-6500 μg/mL.
IC50 (THP-1),SMILES,IC50 [1]
< 500 nM,"Cc1cc(Cl)cc(O)c1-c1ccc(CN2CCCC2=O)nn1 [Compound 62, 1-[[6-(4-chloro-2-hydroxy-6-methyl-phenyl)pyridazin-3-yl]methyl]pyrrolidin-2-one]",< 500 nM
500 to 1000 nM,"Cc1cc(Cl)cc(O)c1-c1ccc(CO[C@@H]2CCOC2)nn1 [Compound 63, (R)-5-Chloro-3-methyl-2-(6-(((tetrahydrofuran-3-yl)oxy)methyl)pyridazin-3-yl)phenol]",< 500 nM
< 500 nM,"Cc1cc(Cl)cc(O)c1-c1ccc(CO[C@H]2CCOC2)nn1 [Compound 64, (S)-5-Chloro-3-methyl-2-(6-(((tetrahydrofuran-3-yl)oxy)methyl)pyridazin-3-yl)phenol]",< 500 nM
500 to 1000 nM,"Cc1cc(Cl)cc(O)c1-c1ccc(COC2COC2)nn1 [Compound 65, 5-Chloro-3-methyl-2-(6-((oxetan-3-yloxy)methyl)pyridazin-3-yl)phenol]",< 500 nM
1000 to 3000 nM,"Cc1cc(Cl)cc(O)c1-c1ccc(CN[C@@H]2CCC(=O)N(C)C2)nn1 [Compound 66, (R)-5-(((6-(4-Chloro-2-hydroxy-6-methylphenyl)pyridazin-3-yl)methyl)amino)-1-methylpiperidin-2-one]",500 to 1000 nM
< 500 nM,"Cc1cc(Cl)cc(O)c1-c1ccc(CN2CCOC2=O)nn1 [Compound 67, 3-((6-(4-Chloro-2-hydroxy-6-methylphenyl)pyridazin-3-yl)methyl)oxazolidin-2-one]",< 500 nM
500 to 1000 nM,"CC(=O)N1CCC(OCc2ccc(-c3c(C)cc(Cl)cc3O)nn2)C1 (stereo not shown) [Compound 68, 1-(3-((6-(4-Chloro-2-hydroxy-6-methylphenyl)pyridazin-3-yl)methoxy)pyrrolidin-1-yl)ethan-1-one]",500 to 1000 nM
3000 to 10000 nM,"Oc1cc(Cl)cc(F)c1-c1ccc(CNC2CCOCC2)nn1 [Compound 69, 5-Chloro-3-fluoro-2-(6-(((tetrahydro-2H-pyran-4-yl)amino)methyl)pyridazin-3-yl)phenol hydrochloride]",3000 to 10000 nM
1000 to 3000 nM,"Cc1cc(OC(F)F)cc(O)c1-c1ccc(CNC2CCOCC2)nn1 [Compound 70, 5-(Difluoromethoxy)-3-methyl-2-(6-(((tetrahydro-2H-pyran-4-yl)amino)methyl)pyridazin-3-yl)phenol]",1000 to 3000 nM
1000 to 3000 nM,"Cc1cc(C(F)(F)F)cc(O)c1-c1ccc(CNC2CCN(C)C2)nn1 (stereo not shown) [Compound 71, 3-Methyl-2-(6-(((1-methylpyrrolidin-3-yl)amino)methyl)pyridazin-3-yl)-5-(trifluoromethyl)phenol dihydrochloride]",500 to 1000 nM
1000 to 3000 nM,"CC(=O)N1CC[C@@H](NCc2ccc(-c3c(C)cc(Cl)cc3O)nn2)C1 [Compound 72, (R)-1-(3-(((6-(4-Chloro-2-hydroxy-6-methylphenyl)pyridazin-3-yl)methyl)amino)pyrrolidin-1-yl)ethan-1-one]",500 to 1000 nM
< 500 nM,"CC(=O)N1CC[C@H](NCc2ccc(-c3c(C)cc(Cl)cc3O)nn2)C1 [Compound 73, (S)-1-(3-(((6-(4-Chloro-2-hydroxy-6-methylphenyl)pyridazin-3-yl)methyl)amino)pyrrolidin-1-yl)ethan-1-one]",< 500 nM
1000 to 3000 nM,"Cc1cc(C(F)(F)F)cc(O)c1-c1ccc(CNc2ncccn2)nn1 [Compound 74, 3-Methyl-2-(6-((pyrimidin-2-ylamino)methyl)pyridazin-3-yl)-5-(trifluoromethyl)phenol]",1000 to 3000 nM
< 500 nM,"Cc1cc(C(F)(F)F)cc(O)c1-c1ccc(CNc2ccncn2)nn1 [Compound 75, 3-Methyl-2-(6-((pyrimidin-4-ylamino)methyl)pyridazin-3-yl)-5-(trifluoromethyl)phenol hydrochloride]",500 to 1000 nM
1000 to 3000 nM,"Cc1cc(C(F)(F)F)cc(O)c1-c1ccc(CNCC2CCCN2C)nn1 (stereo not shown) [Compound 76, 3-Methyl-2-(6-((((1-methylpyrrolidin-2-yl)methyl)amino)methyl)pyridazin-3-yl)-5-(trifluoromethyl)phenol dihydrochloride]",1000 to 3000 nM
1000 to 3000 nM,"Cc1cc(C(F)(F)F)cc(O)c1-c1ccc(CNCC2CCN(C)C2)nn1 (stereo not shown) [Compound 77, 3-Methyl-2-[6-({[(1-methylpyrrolidin-3-yl)methyl]amino}methyl)pyridazin-3-yl]-5-(trifluoromethyl)phenol dihydrochloride]",1000 to 3000 nM
≥ 10000 nM,"Cc1cc(C(F)(F)F)cc(O)c1-c1ccc(CNc2ccccn2)nn1 [Compound 78, 3-Methyl-2-(6-{[(pyridin-2-yl)amino]methyl}pyridazin-3-yl)-5-(trifluoromethyl)phenol]",≥ 10000 nM
500 to 1000 nM,"Cc1cc(C(F)(F)F)cc(O)c1-c1ccc(CNc2cccnc2)nn1 [Compound 79, 3-Methyl-2-(6-{[(pyridin-3-yl)amino]methyl}pyridazin-3-yl)-5-(trifluoromethyl)phenol]",500 to 1000 nM
1000 to 3000 nM,"Cc1cc(C(F)(F)F)cc(O)c1-c1ccc(C(C)N2CCCC2=O)nn1 (stereo not shown) [Compound 80, 1-(1-{6-[2-Hydroxy-6-methyl-4-(trifluoromethyl)phenyl]pyridazin-3-yl}ethyl)pyrrolidin-2-one]",< 500 nM
1000 to 3000 nM,"Cc1cc(C(F)(F)F)cc(O)c1-c1ccc(C(C)(C)N2CCCC2=O)nn1 [Compound 81, 1-(2-{6-[2-Hydroxy-6-methyl-4-(trifluoromethyl)phenyl]pyridazin-3-yl}propan-2-yl)pyrrolidin-2-one]",1000 to 3000 nM
1000 to 3000 nM,"Cc1cc(C(F)(F)F)cc(O)c1-c1ccc(CNc2nccn2C)nn1 [Compound 82, 3-Methyl-2-(6-{[(1-methyl-1H-imidazol-2-yl)amino]methyl}pyridazin-3-yl)-5-(trifluoromethyl)phenol hydrochloride]",500 to 1000 nM
1000 to 3000 nM,"Cc1cnc(NCc2ccc(-c3c(C)cc(C(F)(F)F)cc3O)nn2)s1 [Compound 83, 3-Methyl-2-(6-{[(5-methyl-1,3-thiazol-2-yl)amino]methyl}pyridazin-3-yl)-5-(trifluoromethyl)phenol]",500 to 1000 nM
500 to 1000 nM,"Cc1cc(NCc2ccc(-c3c(C)cc(C(F)(F)F)cc3O)nn2)sn1 [Compound 84, 3-Methyl-2-(6-{[(3-methyl-1,2-thiazol-5-yl)amino]methyl}pyridazin-3-yl)-5-(trifluoromethyl)phenol]",500 to 1000 nM
1000 to 3000 nM,"Oc1cc(C(F)(F)F)cc(C(F)(F)F)c1-c1ccc(CNC2CCOCC2)nn1 [Compound 85, 2-(6-{[(Oxan-4-yl)amino]methyl}pyridazin-3-yl)-3,5-bis(trifluoromethyl)phenol]",1000 to 3000 nM
500 to 1000 nM,"Cc1cc(C(F)(F)F)cc(O)c1-c1ccc(C2(N3CCCC3=O)CC2)nn1 [Compound 86, 1-(1-{6-[2-Hydroxy-6-methyl-4-(trifluoromethyl)phenyl]pyridazin-3-yl}cyclopropyl)pyrrolidin-2-one]",500 to 1000 nM
< 500 nM,"Cc1cc(Cl)cc(O)c1-c1ccc(CN[C@H]2CCC(=O)N(C)C2)nn1 [Compound 87, (5S)-5-({[6-(4-Chloro-2-hydroxy-6-methylphenyl)pyridazin-3-yl]methyl}amino)-1-methylpiperidin-2-one]",< 500 nM
< 500 nM,Cc1cc(C(F)(F)F)cc(O)c1-c1ccc(CN[C@H]2CCC(=O)N(C)C2)nn1 [Compound 88],< 500 nM
< 500 nM,"Cc1cc(Cl)cc(O)c1-c1ccc(CN2CCCC2=S)nn1 [Compound 89, 1-{[6-(4-Chloro-2-hydroxy-6-methylphenyl)pyridazin-3-yl]methyl}pyrrolidine-2-thione]",< 500 nM
500 to 1000 nM,"Cc1cc(Cl)cc(O)c1-c1ccc(CN[C@H]2CC(=O)N(C)C2)nn1 [Compound 90, (4S)-4-({[6-(4-Chloro-2-hydroxy-6-methylphenyl)pyridazin-3-yl]methyl}amino)-1-methylpyrrolidin-2-one]",< 500 nM
